The record followed here is PMC9525908, “α-Crystallin chaperone mimetic drugs inhibit lens γ-crystallin aggregation: Potential role for cataract prevention” (The Journal of Biological Chemistry, 2022).

Numbering of substitutions follows the chain as printed. Entries after “also recorded” stand apart in the source; their conditions may differ.

Format in all cases: biochemical
In one experiment the test system is bovine gamma crystallins. Put plainly: Screen: H2O2 and heat mediated aggregation of bovine gamma crystallins, turbidimetry at 600 nm. As to conditions: bovine γ-crystallin-rich proteins, oxidant stress 24 h and/or thermal stress 72 °C 20 min. The procedure:
For the initial screen, a microtiter plate assay was developed in which bovine crystallins (2 mg/ml of 50 mM K3PO4 buffer, pH 7.2 [buffer A]) were exposed to H2O2 at varying concentrations (1–50 mM) for 12 to 36 h, upon which turbidity developed (at 50 mM H2O2 concentration) in both β- and γ-crystallins (Fig. 1, A and B). […] This was determined by turbidimetry at 600 nm (Fig. 1C) and confirmed using visual assessment of solution transparency over a fine text as well as the presence of cloudy aggregates visible by dark field microscopy (Fig. 1D). The drug:protein stoichiometric ratio was about 5:1. The wavelength of 600 nm was chosen to minimize interference by colored compounds, many of which absorb below 500 nm (Fig. 1E).
Wells were filled with 90 μl calf γ-crystallin-rich protein solution (pool 4 at 2 mg/ml) followed by 0.5 to 5.0 μl of drug (all 10 mM stock solution in DMSO) as supplied by the manufacturer and 10 μl H2O2 (450 mM stock solution in water) and sealed with sticky Applied Biosystems MicroAmp Clear Adhesive films (Life Technologies). Control wells received DMSO only. […] In order to quantitate the impact of the drugs on aggregation, a fitness plot was created (Fig. 1 C) that allowed us to identify wells with enhanced/worsening versus suppressed crystallin aggregation. In addition, aggregation in each well was also visually assessed by two independent “blinded” readers for the ability to read fine print through each well by placing the plates over small font text (Fig. 1D). Both machine and visual readouts were reconciled in order to increase robustness.

Experiment [1] relates to Total mouse gamma crystallins. Put plainly: H2O2 oxidation-mediated aggregation of total mouse γ-crystallins, 600 nm. As to conditions: 2.5 mg/ml, H2O2, 18 h at 37 °C. The procedure: In preparation for possible in vivo testing, the drugs were tested against native mouse γ-crystallins. Total gamma crystallins (2.5 mg/ml) were incubated with H2O2 for 18 h at 37 °C with increasing concentrations of drugs X, C, and G, or a combination thereof. Oxidative stress–mediated aggregation at 600 nm was suppressed by drug C but poorly by drug G (Fig. S4A, left panel). […] The baseline increase at 50 μM could reflect a destabilizing effect of the drugs because of a pro-oxidative mechanism followed by stabilizing chaperone-like effect. […] There is 52.6% more aggregation of OPJ-MγS in comparison to WT-MγS under same conditions of thermal stress. […] Fluorescence microscopy using Nile Red provides a pictorial rendition of the type and size of aggregates formed on heating WT-MγS and OPJ-MγS, with and without drugs (Fig. S4F). […] The bis-ANS fluorescence inhibition pattern is again in complete agreement with the previous results for HγD (Fig. 2F). […] As for the reproducibility of these findings, see Fig. S7 and the warning note under Rigor and reproducibility section.

Another experiment has as its target T1, HγD-ox (Homo sapiens, UniProt P07320).
T1 construct: made in house; host or cells: Escherichia coli BL21(DE3) pLysS, pET3d vector
T1 sequence (P07320 1-174): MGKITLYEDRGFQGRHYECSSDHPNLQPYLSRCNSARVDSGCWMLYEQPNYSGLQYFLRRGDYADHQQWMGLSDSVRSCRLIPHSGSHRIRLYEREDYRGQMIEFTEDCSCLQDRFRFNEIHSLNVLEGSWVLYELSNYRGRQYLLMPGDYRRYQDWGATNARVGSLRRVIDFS
Put plainly: Turbidity (600 nm) of oxidized HγD heated 10 min at 72 °C. As to conditions: 1.4 mg/ml with DTPA, 100 and 500 μM bis-ANS, 100 μM drug C, 500 μM drug M. From the text: In postsubmission experiments, we attempted to find mechanistic clues relevant to the use of an H2O2 oxidation step prior to the thermal stress used during the initial drug screen. For this reason, we did a comparative study of oxidized (HγD-ox) versus native HγD (HyD-nat), hypothesizing that bis-ANS would both act like the drugs and provide information on the role of exposed hydrophobicity ([40]). HγD was oxidized in diethylenetriaminepentaacetic acid […] phosphate buffer to facilitate hydroxyl radical formation and protein damage, followed by dialysis against DTPA-treated buffer to eliminate the known proaggregating effects of divalent metals ([32]) in the subsequent steps. […] Overall protective effects were more pronounced for the oxidized than nonoxidized form of HγD. […] In the hope to obtain clues on the impact of bis-ANS, drugs C, G, and M on protein aggregation status, native PAGE was performed (Fig. 3G). Polymers greater than 250 kD are present in unheated HγD-nat but only the size of 75 to 100 kD in HγD-ox. […] Other techniques will be needed to assess the relationship between drugs and aggregate size.

Another experiment has as its target T2, R58H mutant of HγD (Homo sapiens, UniProt P07320, R59H).
T2 construct: made in house; host or cells: E. coli BL21(DE3) pLysS
T2 sequence (P07320 1-174 R59H): T1 sequence (P07320 1-174) with R59H
Put plainly: End-point turbidity assay (72 °C, 20 min) of R58H mutant. The settings on record: 500 μM drug, read-out: Inhibition of aggregation (%) R58H. The protocol: Aggregation kinetics assays at 600 nm in the presence of varying concentrations (0, 100, 200, 300, 400, and 500 μM) of our selected drugs were also performed on mutants of HγD (W43R, W42Q, R14C, and R58H) and MγS (F9S) at a concentration of 1 mg/ml in 50 mM K3PO4 buffer (pH 7.2) in a total volume of 100 μl. WT-HγD and WT-MγS crystallin served as controls for their respective mutant versions. For W43R mutant, aggregation assay was done at 42 °C for a total of 200 min. Absorbance was monitored every 10 min. For R14C and R58H mutants, end-point turbidity assay was done at 72 °C for 20 min. […] All the experiments were run in duplicates or triplicates.

A further experiment has as its target T3, OPJ-MγS (Mus musculus, UniProt O35486, F10S).
T3 construct: made in house; host or cells: E. coli BL21(DE3) pLysS, pET17b vector
T3 sequence (O35486 1-178 F10S): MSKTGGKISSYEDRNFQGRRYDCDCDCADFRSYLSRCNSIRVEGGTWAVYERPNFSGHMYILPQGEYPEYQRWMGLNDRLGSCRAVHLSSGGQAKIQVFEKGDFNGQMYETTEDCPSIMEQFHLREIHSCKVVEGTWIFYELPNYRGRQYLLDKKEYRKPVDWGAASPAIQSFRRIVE
Put plainly: Thermal unfolding (Tm), OPJ-MγS. As to conditions: 10 μM protein, 100 μM drug; for Tm (°C) OPJ-MGS N-ter: Con 48; for Tm (°C) OPJ-MGS C-ter: Con 63. The protocol:
Thermal denaturation study was monitored using fluorescence spectroscopy. Protein solutions (10 μM) in the presence and absence of drugs or bis-ANS (100 μM) were heated continuously from 30 to 95 °C, and the fluorescence data were collected every 5 °C after 1 min equilibration at the given temperature. Unfolding data were fit to Greene and Pace’s two-state model ([82]) using GraphPad Prism software (GraphPad Software, Inc).

With `COC(=O)/C=C/C(C)=C\C=C\C(C)=C\C=C\C=C(C)\C=C\C=C(C)\C=C\C(=O)O` [drug B, Bixin], the Antiaggregation activity entry in the experiment on bovine gamma crystallins was “Medium heat shock inhibitor”.

In the case of `Cc1cc(C(C#N)c2ccc(Cl)cc2)c(Cl)cc1NC(=O)c1cc(I)cc(I)c1O` (stereo not drawn) [drug C, Closantel], the “Oxidative stress–mediated aggregation at 600 nm” value in experiment [1] is “suppressed”. For the same molecule, the “Effect on aggregation/turbidity of HγD-ox” value at HγD-ox is given as “strongly suppressed”. Moreover, the Antiaggregation activity result with bovine gamma crystallins is on record as “Medium strong dual inhibitor”. At R58H mutant of HγD, the inhibition at 500 µM was 55%. Besides, at OPJ-MγS, the “Tm (°C) OPJ-MGS N-ter” value came out at 50 °C and the “Tm (°C) OPJ-MGS C-ter” value was 69 °C.

`CC(C)=CCCC1(C)C=Cc2c(O)c3c(c(CC=C(C)C)c2O1)OC12C(=CC4CC1C(C)(C)OC2(C/C=C(/C)C(=O)O)C4O)C3=O` (stereo not drawn) [drug D, dihydrogambogic acid]: in the experiment with bovine gamma crystallins, the Antiaggregation activity result is listed as “Strong heat shock inhibitor”.

`CC(C)=CCC[C@]1(C)C=Cc2c(O)c3c(c(CC=C(C)C)c2O1)O[C@]12C(=C[C@@H]4C[C@H]1C(C)(C)O[C@@]2(C/C=C(/C)C(=O)O)C4=O)C3=O` [drug G, Gambogic acid]: the “Oxidative stress–mediated aggregation at 600 nm” value in experiment [1] was “poorly”. Besides, the Antiaggregation activity result in the experiment with bovine gamma crystallins is reported as “Strong heat shock inhibitor”. Further, the inhibition at 500 µM on R58H mutant of HγD is 83%. On OPJ-MγS, the “Tm (°C) OPJ-MGS N-ter” value worked out at 50 °C and the “Tm (°C) OPJ-MGS C-ter” value is 70 °C.

For the molecule `O=C(O)CCCCCCCCCCCC[C@@H]1C=CCC1` [drug M, Chaulmoogric acid], at HγD-ox, the “Effect on aggregation/turbidity of HγD-ox” value is “strongly suppressed; also recorded: protected oxidized HγD”. In addition, in the experiment with bovine gamma crystallins, the Antiaggregation activity result is on record as “Dual heat shock inhibitor + antioxidant”. In addition, the inhibition at 500 µM at R58H mutant of HγD worked out at 44%. Besides, on OPJ-MγS, the “Tm (°C) OPJ-MGS N-ter” value is 48 °C and the “Tm (°C) OPJ-MGS C-ter” value was 63 °C.

As usually defined, the inhibition is the share of the control response that was lost under treatment.
